# Assay results taken from a melting point compilation (Tetko et al.; mined from patent text by program, amines drawn as free bases though some values may be those of a salt).
row,melting point,SMILES
1,157 to 160 °C,CSc1ccc2c(c1)C(=O)OC2=O
2,197 to 198 °C,CCc1c(F)c(F)c(F)c2c1c(=O)c(C(=O)O)cn2C1CC1
3,155 to 156 °C,CCCCc1nc2cccc(C(=O)OC)c2n1Cc1ccc(-c2ccccc2C#N)nc1
4,135 to 137 °C,Cc1c(NC(=O)CC(C)(C)C)c(C)c2c(c1-c1ccc(F)nc1)OCC2c1ccc(C(C)C)cc1 (stereo not drawn)
5,171 to 172 °C,CN1CCN(c2ccc(Nc3cc(-c4cccc(N5Cc6cc(C(C)(C)C)ccc6C5=O)c4CO)cn(C)c3=O)nn2)CC1
6,261 to 263 °C,COc1cccc2c1nc(C(F)F)n2-c1nc(Nc2ccc(F)nc2)nc(N2CCOCC2)n1
7,149 to 150 °C,O=C(O)c1nc2ccccc2n(Cc2ccccc2)c1=O
8,100 to 105 °C,CCN1C(=O)C(C)(C)C(=O)N(C)c2cc(OCCCN3C(=O)C(c4ccccc4)Cc4ccccc43)ccc21 (stereo not drawn)
9,240 to 241 °C,Cc1ccc(-n2nc(C(C)(C)C)cc2NC(=O)Nc2ccc(OCC(=O)N3CCOCC3)c3ccccc23)cc1
10,102 to 104 °C,CC(CCC(O)CO)=Nc1ncnc2c1ncn2C1OC(CO)C(O)C1O (stereo not drawn)
11,80 °C,CC(Br)C(=O)c1ccc(OCc2ccccc2)c(CO)c1 (stereo not drawn)
12,76 to 78 °C,COC(=O)NC(=NS(=O)(=O)NC(C)C)SCc1ccccc1
13,158 to 160 °C,NC(=O)n1ccc(-c2ccc(Oc3ccc(N)cc3)cc2)n1
14,94 to 96 °C,CCOc1cc2c(cc1OCC)C(C(C#N)SCCO)=NCC2 (stereo not drawn)
15,240 to 241 °C,CC1CC(=O)NN=C1c1ccc(NC(=O)OCC2CC2)cc1 (stereo not drawn)
16,195 to 197 °C,CCOC(=O)C1Cc2c([nH]c3ccccc23)CN1C(=S)SCc1ccc(Cl)cc1 (stereo not drawn)
17,269 °C,C=Cn1cc(C(=O)O)c(=O)c2ccc(Cl)cc21
18,146 to 147 °C,CN(C(=O)N1CCN2C(=O)OC(c3ccccc3)(c3ccccc3)C2C1)c1ccccc1 (stereo not drawn)

row,melting point,SMILES
1,65 to 67 °C,CCOC(=O)CCCN(C(=O)c1cccc(C(F)(F)F)c1)c1ccccc1-c1ccccc1
2,145 to 146 °C,O=C(C=Cc1ccncc1)C=Cc1ccncc1
3,106 to 107 °C,CC(N)C(N)CC(=O)c1ccccc1 (stereo not drawn)
4,129 °C,COC(=O)c1ccc2cc(OC)ccc2n1
5,219 to 220 °C,Cc1ccc(S(=O)(=O)Nc2c(C)c(C)c3c(c2C)CC(C)(C)O3)cc1
6,122 to 124 °C,Clc1ccc(CN2CC=C(/C=C/c3ccc4c(c3)OCO4)CC2)cc1
7,123 to 127 °C,COC(=O)c1ccc(NN2C(=O)C(C)=C(C)C2=O)cc1C(=O)Nc1nc(OC)nc(OC)n1
8,114 to 115 °C,CCC1(CCCCN2CCN(c3ccccn3)CC2)C(=O)Nc2ccc(Br)cc21 (stereo not drawn)
9,147 to 149 °C,O=S(CCl)c1ccc(-n2cnnn2)cc1 (stereo not drawn)
10,117 to 118 °C,Cc1ccc(S(=O)(=O)c2ccccc2)nc1
11,115 to 117 °C,COCc1cc2c(s1)CCCc1cc(=O)n(-c3ccc(OC)cc3)nc1-2
12,75 to 77 °C,CCN(C(=O)N(C)C)c1nnc(S(=O)(=O)N(C)C)s1
13,212 to 214 °C,C=C(COC1CC2C3CCC4=CC(=O)C=CC4(C)C3(F)C(O)CC2(C)C1(O)C(=O)CCl)c1ccccc1 (stereo not drawn)
14,186 to 187 °C,Cn1nc(-c2ccc(OCCCCl)cc2)ccc1=O
15,210 to 212 °C,COc1ccc(C2(C)C(=O)Nc3cc(Cl)cc(Cl)c3C2=O)cc1 (stereo not drawn)
16,129 to 130 °C,CCc1cc(NCc2ccc(-n3cccc3-c3nnn[nH]3)cc2)n2nccc2n1
17,167 to 168 °C,Cc1nc(-n2ccn(Cc3ccc(F)cc3)c2=O)sc1C(=O)NCc1ccccc1
18,144 °C,CC(C)(C)OC(=O)NC(=N)NC(=O)OC(C)(C)C

row,SMILES,melting point
1,COC12CC(CCOC(=O)c3ccc[nH]3)CN(C)C1Cc1cn(C)c3cccc2c13 (stereo not drawn),148 to 149 °C
2,Cc1sc2c(c1C)C(c1ccc(Cl)cc1)=NC(CC(=O)N1CCOCC1)c1nnc(C)n1-2 (stereo not drawn),252 to 254 °C
